Series [1] concerns VEGF165b. Briefly: VEGF165b expression in RPE cells. The format is cell-based.
Series [2] is described as follows: Scleral permeability, modified Ussing chamber, rabbit eye tissue. The settings on record: rabbit sclera; for detection in the vitreous: 24 hours.
Description: (§1) Scleral permeability was measured using a modified Ussing chamber assembly in isotonic assay buffer (pH 7.4). Rabbit or porcine excised eye tissues were mounted in the chambers such that the episcleral side faced the donor chamber and the retinal side faced the receiver chamber. The chambers were filled with equal volumes of assay buffer, with (donor side) or without (receiver side) 1 μg/ml compound. After 4 or 24 hours tissue was removed from the chamber and the receiver side (“vitreous”) sampled. Tissue was dissected into sclera, choroid/RPE, and retina and homogenised.
(§2) After 0, 4 or 24 hours, the fluid from the bottom chamber (vitreous) and the retinal tissue was isolated and compounds purified by acetonitrile extraction and HPLC.
For series [3], the system named is SRSF1 localisation. As to the kind of experiment: SRSF1 nuclear localisation by immunofluorescence in MDA-MB231 cells. The series is classed as cell-based.
Series [4] relates to SRSF1 localisation. As to the kind of experiment: SRSF1 nuclear localisation by immunofluorescence in PC3 cells. The series is classed as cell-based.
Series [5] in a line: Solubility in water of salt forms. The settings on record: salt forms versus free compounds.
A short description of series [6]: in vitro. The settings on record: human.
Excerpt: We also tested the half life of these compounds when exposed to human liver microsomes.
Series [7] deals with T1, SRPK1 (Homo sapiens (Human), UniProt Q96SB4). Briefly: In vitro kinase assay (Kinase-Glo), SRPK1 inhibition. The format is biochemical. As to conditions: Table 2, SRPK1 inhibition assay. The protocol:
Candidate compounds were serially diluted from 10 μM-0.5 nM and added to the reaction mixture, wells with omitted SRPK1 kinase and omitted compounds were also added as controls. All wells contained one percent DMSO. One micromolar ATP was added, wells minus ATP were used as background controls. The plate was then incubated at 30° C. for 10 minutes. An equal volume of Kinase-Glo (Promega, 25 μl) was added to each well and the plate read for luminescence using an Fluostar Optima (BMG Labtech).
In general terms: In Kinase-Glo more light means more ATP remaining.

Series [8] is classed as cell-based. From the text: To test whether compounds of Formula (I) are safe to administer to patients we began a basic safety test of these compounds in vitro.
In series [9] the test system is choroidal neovascularisation. As to conditions: mouse models of CNV, previously shown; cited from earlier work.
For series [10], the target named is human ether a go-go related gene (hERG) K+ channel (Homo sapiens (Human), UniProt Q12809). The settings on record: previously described (Gammons et al., 2013); cited from earlier work.
Sequence of human ether a go-go related gene (hERG) K+ channel (Q12809 whole entry): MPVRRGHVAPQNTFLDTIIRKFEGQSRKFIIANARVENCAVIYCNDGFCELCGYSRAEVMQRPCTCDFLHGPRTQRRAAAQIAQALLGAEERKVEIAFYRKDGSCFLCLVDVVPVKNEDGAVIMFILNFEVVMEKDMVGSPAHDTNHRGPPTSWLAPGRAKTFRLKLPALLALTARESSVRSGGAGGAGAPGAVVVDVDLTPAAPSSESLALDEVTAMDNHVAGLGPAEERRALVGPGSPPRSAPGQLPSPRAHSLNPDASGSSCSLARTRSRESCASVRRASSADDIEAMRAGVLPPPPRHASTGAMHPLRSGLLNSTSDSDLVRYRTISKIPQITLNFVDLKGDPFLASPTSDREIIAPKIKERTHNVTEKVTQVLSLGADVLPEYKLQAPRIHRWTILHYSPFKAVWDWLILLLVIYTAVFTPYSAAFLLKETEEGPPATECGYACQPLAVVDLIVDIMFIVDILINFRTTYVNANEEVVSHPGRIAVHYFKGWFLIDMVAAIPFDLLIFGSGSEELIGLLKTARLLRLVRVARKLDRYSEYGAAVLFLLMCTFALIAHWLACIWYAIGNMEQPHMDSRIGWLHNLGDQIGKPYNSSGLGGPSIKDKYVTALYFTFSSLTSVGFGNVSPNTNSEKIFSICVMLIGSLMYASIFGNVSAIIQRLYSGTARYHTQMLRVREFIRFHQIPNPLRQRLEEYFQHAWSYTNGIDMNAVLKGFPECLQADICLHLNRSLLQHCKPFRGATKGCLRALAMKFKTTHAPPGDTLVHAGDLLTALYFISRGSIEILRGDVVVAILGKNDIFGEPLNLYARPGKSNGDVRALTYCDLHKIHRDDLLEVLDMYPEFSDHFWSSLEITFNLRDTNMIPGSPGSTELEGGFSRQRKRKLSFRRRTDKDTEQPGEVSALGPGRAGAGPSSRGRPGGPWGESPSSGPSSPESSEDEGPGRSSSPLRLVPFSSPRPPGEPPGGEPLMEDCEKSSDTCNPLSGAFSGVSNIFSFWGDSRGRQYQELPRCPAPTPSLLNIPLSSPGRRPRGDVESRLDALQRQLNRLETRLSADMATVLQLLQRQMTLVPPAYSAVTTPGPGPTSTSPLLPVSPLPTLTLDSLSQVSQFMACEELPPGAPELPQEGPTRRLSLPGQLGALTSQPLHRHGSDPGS
The target of series [11] is T1, SRPK1. As to conditions: read-out: IC50 of SRPK1 inhibition; previously shown; cited from earlier work.
Series [12] is described as follows: Scleral permeability, modified Ussing chamber, porcine eye tissue. As to conditions: porcine eyes. The series is classed as in vitro ADME.
Description: as §1, §2
Series [13] concerns VEGF165b. As to conditions: cited from earlier work.
For series [14] the following is noted: monthly 0.5 mg, at one year; cited from earlier work.

Entries after “also recorded” stand apart in the source; their conditions may differ. Read-outs that look alike come from different tables or passages of the source.

As usually defined, the half-life is the time needed for the level to fall by half in the phase considered. Lower therefore signals fast loss. One may read the IC50 as the concentration that gives 50% inhibition.

T1 sequence (Q96SB4 whole entry): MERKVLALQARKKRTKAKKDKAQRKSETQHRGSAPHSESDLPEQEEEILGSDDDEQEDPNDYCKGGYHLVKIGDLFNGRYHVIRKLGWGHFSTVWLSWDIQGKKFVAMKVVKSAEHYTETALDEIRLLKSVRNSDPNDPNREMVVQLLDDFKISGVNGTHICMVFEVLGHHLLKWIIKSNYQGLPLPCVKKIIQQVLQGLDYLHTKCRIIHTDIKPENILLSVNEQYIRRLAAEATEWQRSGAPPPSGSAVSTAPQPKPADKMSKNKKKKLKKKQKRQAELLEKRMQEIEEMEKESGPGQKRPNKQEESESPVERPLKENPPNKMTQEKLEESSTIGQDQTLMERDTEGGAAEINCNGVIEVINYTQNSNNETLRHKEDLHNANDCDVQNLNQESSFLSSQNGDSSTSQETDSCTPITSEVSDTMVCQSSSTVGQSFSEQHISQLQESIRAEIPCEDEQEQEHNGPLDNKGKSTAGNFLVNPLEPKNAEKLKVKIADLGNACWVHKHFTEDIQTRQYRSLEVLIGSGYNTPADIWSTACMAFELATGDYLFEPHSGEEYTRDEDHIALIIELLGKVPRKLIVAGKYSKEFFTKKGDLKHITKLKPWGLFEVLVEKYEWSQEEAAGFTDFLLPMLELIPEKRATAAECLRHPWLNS

Regarding `O=C(Nc1cc(C(F)(F)F)ccc1N1CCN(Cc2ccccn2)CC1)c1ccc(-c2ccncc2)o1` [Compound 12], the “expression of anti-angiogenic VEGF165b” value in series [1] is on record as “dose dependent increase in VEGF165b”. Further, in series [2], the “detection in the vitreous” value is on record as “more SPHINX31 than pazopanib”. Also, the SRSF1 cellular localisation entry in series [3] and in series [4] was “inhibited cellular localisation” throughout. Moreover, the solubility in water result in series [5] is “more freely soluble in water”. In series [6] (microsomes), the half-life was 1.02 h. For `O=C(Nc1cc(C(F)(F)F)ccc1N1CCN(Cc2cccnc2)CC1)c1ccc(-c2ccncc2)o1` [Compound 13], the solubility in water result in series [5] is “more freely soluble in water”.

Consider `O=C(Nc1cc(C(F)(F)F)ccc1N1CCN(Cc2ccncc2)CC1)c1ccc(-c2ccncc2)o1` [Compound 14], for which the solubility in water entry in series [5] was “more freely soluble in water”. The molecule `O=C(Nc1cc(C(F)(F)F)ccc1N1CCN(Cc2ccccc2)CC1)c1ccco1` [Compound 19] showed a half-maximal inhibitory concentration (IC50) in series [7] of 14.1 nM. Turning to `Cc1ccc(C(=O)Nc2cc(C(F)(F)F)ccc2N2CCN(Cc3ccccc3)CC2)o1` [Compound 20], in series [7], the midpoint of inhibition, the IC50, lay at 4.4 nM. In [6] (liver microsomes), this molecule showed a half-life of 0.283 h.

Turning to `O=C(Nc1cc(C(F)(F)F)ccc1N1CCN(Cc2ccccc2)CC1)c1ccc(-c2cccnc2)o1` [Compound 21], in series [7], half-maximal inhibition (IC50) was put at 4.6 nM. For the same molecule, the half-life in series [6] (liver microsomes) turned out to be 1.04 h. In [7], `Cc1cnc(C(=O)Nc2cc(C(F)(F)F)ccc2N2CCN(Cc3ccccn3)CC2)o1` [Compound 27] gave an IC50 of 10000 nM. Turning to `Cc1nnc(C(=O)Nc2cc(C(F)(F)F)ccc2N2CCN(Cc3ccccn3)CC2)o1` [Compound 28], half-maximal inhibition in series [7] (IC50) was put at 10000 nM. Molecule `CSc1nccc(CN2CCN(c3ccc(C(F)(F)F)cc3NC(=O)c3ccc(C)o3)CC2)n1` [Compound 31] yielded a half-maximal inhibitory concentration (IC50) in [7] of 1.9 nM. `O=C(Nc1cc(C(F)(F)F)ccc1N1CCN(Cc2ccccn2)CC1)c1nc(-c2ccccc2)no1` [Compound 34] displayed a 50% inhibitory concentration (IC50) in [7] of 5310 nM. The molecule `CN1CCN(c2ccc(C(F)(F)F)cc2NC(=O)c2cccs2)CC1` [Compound 40] yielded an IC50 in series [7] of 4690 nM. On the same count and under the same terms, the same measure for `CN1CCN(c2ccc(C(F)(F)F)cc2NC(=O)c2nc(-c3ccccc3)c[nH]2)CC1` [Compound 41]: 493 nM.

In series [7], `O=C(Nc1cc(C(F)(F)F)ccc1N1CCN(Cc2cnccn2)CC1)c1ccco1` [Compound 43] registered a half-inhibitory concentration (IC50) of 183 nM.

Consider `CN(C)CCN1CCN(c2ccc(C(F)(F)F)cc2NC(=O)c2ccc(-c3ccncc3)o2)CC1` [SPHINX7], for which the “doses at which toxic” value in series [8] was “greater than 10 μM”. As to `Cc1ccc(C(=O)Nc2cc(C(F)(F)F)ccc2N2CCOCC2)o1` [SPHINX], the “eye drop concentration of maximum anti-angiogenic effect” value in series [9] was 10 µg/mL. The hERG inhibition entry in series [10] is recorded as “did not inhibit hERG; also recorded: do not inhibit hERG”. For the molecule `O=C(Nc1cc(C(F)(F)F)ccc1N1CCCCC1)c1ccncc1` [SRPIN340], in series [9], the “eye drop concentration of maximum anti-angiogenic effect” value was 10 µg/mL. Besides, the hERG inhibition entry in series [10] was “do not inhibit hERG”. For the same molecule, the IC50 in series [11] is 1000 nM. With `Cc1ccc(Nc2nccc(N(C)c3ccc4c(C)n(C)nc4c3)n2)cc1S(N)(=O)=O` [pazopanib], the “detection in retina and vitreous” value in series [2] (4 hrs) is “could not”. Besides, in [2], the “detection in the vitreous” value is “detected”. In series [12], the “accumulation in sclera and RPE/Choroid layer” value was “accumulated in the sclera and in the RPE/Choroid layer”; the “penetration into retina and vitreous” value is “did not penetrate the retina”. With “bevicizumab: an anti-VEGF antibody from which Lucentis was derived”, the “binding of VEGF165b versus VEGF165” value in [13] is reported as “equal potency”.

B1: Lucentis: a novel humanized anti-VEGF antibody fragment (antibody, chains of the INN, looked up, V domains shown)
VH: EVQLVESGGGLVQPGGSLRLSCAASGYDFTHYGMNWVRQAPGKGLEWVGWINTYTGEPTYAADFKRRFTFSLDTSKSTAYLQMNSLRAEDTAVYYCAKYPYYYGTSHWYFDVWGQGTLVTVSS
VL: DIQLTQSPSSLSASVGDRVTITCSASQDISNYLNWYQQKPGKAPKVLIYFTSSLHSGVPSRFSGSGSGTDFTLTISSLQPEDFATYYCQQYSTVPWTFGQGTKVEIK
modifications: Fab
notes: a novel humanized anti-VEGF antibody fragment
Turning to B1, in series [14], the “patients who maintained visual acuity (loss of <15 letters)” value is “approximately 95%” and the “patients with improved vision (gain of ≧15 letters)” value is recorded as at most 40%.

Values taken from patent US9695160B2, “Piperazine derivatives for treating disorders” (THE UNIVERSITY OF NOTTINGHAM, priority 2014, dated 2017).
